Series [1] can be described thus: Stability of amphotericin B solutions by HPLC analysis. The note with it: for Stability in methanol solution in acid medium: topical grade.
Protocol: The stability of the amphotericin B solutions was recorded by HPLC analysis using a reversed-phase column (C18 Bondapak, 25×0.5 cm, Waters Associates). A CH3 CN/10 mM acetate buffer, pH 7, system (39:61) was used as eluent. UV recording was performed at 404 and 362 nm. The flow rate was 2 ml/min. The retention time (RT) of amphotericin B is 9.5 minutes. Results were expressed as the percentage of the peak area.
For series [2] the following is noted: acetic acid and ammonia NH3 in methanol, two equivalents, 5 mg/ml in CH3OH.

As usually defined, the solubility is the dissolved amount per volume that the medium holds.

Structures are written as SMILES. Converted amounts (≈) assume the structure as drawn.

With `C[C@@H]1[C@H](O)[C@@H](C)/C=C/C=C/C=C/C=C/C=C/C=C/C=C/[C@H](O[C@@H]2O[C@H](C)[C@@H](O)[C@H](N)[C@@H]2O)C[C@@H]2O[C@](O)(C[C@@H](O)C[C@@H](O)[C@H](O)CC[C@@H](O)C[C@@H](O)CC(=O)O[C@H]1C)C[C@H](O)[C@H]2C(=O)O` [amphotericin B], the “Stability of neutral CH3OH solution” value in series [1] (0.1 mg/ml, 4° C.) is recorded as “stable for several days”. For the same compound, in series [1] (basic CH3OH solution), the “Effect of neutralization with methanolic HCl on stability” value is “no effect on the stability”. In addition, the “Effect of addition of an excess of NaOH on stability” value in series [1] (excess of NaOH, methanolic solution) is recorded as “does not affect the stability”. Besides, the “Degradation in an acid medium” value in series [1] (i.v. grade, methanol, one equivalent HCl, concentration greater than 2 mg/ml) is given as “increases greatly”. Also, the “Stability in methanolic NaOH solution” value in series [1] (i.v. grade, one equivalent NaOH, up to 5 mg/ml) is given as “good stability”. In addition, the “Stability in methanol solution in acid medium” value in series [1] (0.1 mg/ml, 1.5 eq. HCl) is on record as “stable”; in series [1] (5 mg/ml, acid medium (HCl)) it was “degraded”. For the same compound, the solubility is 5000 µg/mL in the series “physchem” (ch3oh + 1.0 eq. hcl, organic solvent or mixture, Solubility of i.v. grade amphotericin B); 5000 µg/mL in “physchem” (ch3oh + 1.0 eq. naoh, organic solvent or mixture, Solubility of i.v. grade amphotericin B); 5000 µg/mL in “physchem” (ch3oh + 1.5 eq. hcl, organic solvent or mixture, Solubility of topical grade amphotericin B); 5000 µg/mL in the series “physchem” (ch3oh + 1.5 eq. naoh, organic solvent or mixture, Solubility of topical grade amphotericin B); 3000 to 5000 µg/mL (≈ 3250 to 5410 µM) in “physchem” (ch3oh, acid, organic solvent or mixture, Solubility of amphotericin B); 2000 to 3000 µg/mL (≈ 2160 to 3250 µM) in “physchem” (ch3oh, basic, organic solvent or mixture, Solubility of amphotericin B). In addition, the solubility in the series “physchem” (ch3oh, neutral, organic solvent or mixture, Solubility of amphotericin B) is 200 to 400 µg/mL (≈ 216 to 433 µM); in the series “physchem” (ch3oh, organic solvent or mixture, Solubility of i.v. grade amphotericin B), 150 µg/mL (≈ 162 µM); in the series “physchem” (ch3oh, organic solvent or mixture, Solubility of topical grade amphotericin B), 130 µg/mL (≈ 141 µM); in the series “physchem” (dimethylacetamide, organic solvent or mixture, Solubility of amphotericin B in DMA), 6000 µg/mL (≈ 6490 µM); in “physchem” (dimethylformamide, acid, organic solvent or mixture, Solubility of amphotericin B), 60000 to 80000 µg/mL (≈ 64900 to 86600 µM); in “physchem” (dimethylformamide, neutral, organic solvent or mixture, Solubility of amphotericin B) it was 2000 to 4000 µg/mL (≈ 2160 to 4330 µM). The solubility in the series “physchem” (h2o, acid, Solubility of amphotericin B) amounted to 100 µg/mL (≈ 108 µM); in the series “physchem” (h2o, basic, Solubility of amphotericin B), 100 µg/mL (≈ 108 µM). For the same compound, the “Dissolution of amphotericin B” value in series [2] was “do not dissolve”.

Values taken from patent publication US5100591A, “Process for preparing lipid microparticles” (Medgenix Group S.A., priority 1989, dated 1992).
